Laboratory results from patent US12168653B2, “Sulfonamide derivates as NLRP3 inhibitors” (Inflazome Limited, priority 2018, dated 2024).
Where a name gives a salt, the structure may show the parent alone.

test system: NLRP3; assay: THP-1 cells pyroptosis assay (LPS/nigericin, resazurin read-out); format: cell-based; details: Homo sapiens, THP-1, read-out: THP IC50
Protocol: THP-1 cells (ATCC #TIB-202) were grown in RPMI containing L-glutamine (Gibco #11835) supplemented with 1 mM sodium pyruvate (Sigma #S8636) and penicillin (100 units/ml)/streptomycin (0.1 mg/ml) (Sigma #P4333) in 10% Fetal Bovine Serum (FBS) (Sigma #F0804). The cells were routinely passaged and grown to confluency (˜10^6 cells/ml). On the day of the experiment, THP-1 cells were harvested and resuspended into RPMI medium (without FBS). The cells were then counted and viability (>90%) checked by Trypan blue (Sigma #T8154). Appropriate dilutions were made to give a concentration of 625,000 cells/ml. To this diluted cell solution was added LPS (Sigma #L4524) to give a 1 μg/ml Final Assay Concentration (FAC). 40 μl of the final preparation was aliquoted into each well of a 96-well plate. The plate thus prepared was used for compound screening.
The following method step-by-step assay was followed for compound screening. • 1. Seed THP-1 cells (25,000 cells/well) containing 1.0 μg/ml LPS in 40 μl of RPMI medium (without FBS) in 96-well, black walled, clear bottom cell culture plates coated with poly-D-lysine (VWR #734-0317) • 2. Add 5 μl compound (8 points half-log dilution, with 10 μM top dose) or vehicle (DMSO 0.1% FAC) to the appropriate wells • 3. Incubate for 3 hrs at 37° C., 5% CO2 • 4. Add 5 μl nigericin (Sigma #N7143) (FAC 5 μM) to all wells • 5. Incubate for 1 hr at 37° C., 5% CO2 • 6. At the end of the incubation period, spin plates at 300×g for 3 mins and remove supernatant • 7. Then add 50 μl of resazurin (Sigma #R7017) (FAC 100 μM resazurin in RPMI medium without FBS) and incubate plates for a further 1-2 hrs at 37° C. and 5% CO2 • 8. Plates were read in an Envision reader at Ex 560 nm and Em 590 nm • 9. IC50 data is fitted to a non-linear regression equation (log inhibitor vs response-variable slope 4-parameters) 96-Well Plate Map

SMILES	IC50 [µM]
COc1cc(-c2cc(F)cc(C(C)C)c2CC(=O)NS(=O)(=O)C[C@]23CCC(CC2=O)C3(C)C)ccn1 [Example 7, N-((((1S)-7,7-Dimethyl-2-oxobicyclo[2.2.1]heptan-1-yl)methyl)sulfonyl)-2-(4-fluoro-2-isopropyl-6-(2-methoxypyridin-4-yl)phenyl)acetamide, Potassium Salt]	< 10
COc1cc(-c2cc(F)cc(C(C)C)c2CC(=O)NS(=O)(=O)CCCC(C)(C)O)ccn1 [Example 10, 2-(4-Fluoro-2-isopropyl-6-(2-methoxypyridin-4-yl)phenyl)-N-((4-hydroxy-4-methylpentyl)sulfonyl)acetamide, Potassium Salt]	< 10
COc1cc(-c2cc(F)cc(C(C)C)c2CC(=O)NS(=O)(=O)N(C)C2CCN(C)C2)ccn1 (centres unmarked) [Example 8, 2-(4-Fluoro-2-isopropyl-6-(2-methoxypyridin-4-yl)phenyl)-N—(N-methyl-N-(1-methylpyrrolidin-3-yl)sulfamoyl)acetamide, Potassium Salt]	< 5
COc1cc(-c2ccc3c(c2CC(=O)NS(=O)(=O)N(C)C2CCN(C)C2)CCC3)ccn1 (centres unmarked) [Example 1, 2-(5-(2-Methoxypyridin-4-yl)-2,3-dihydro-1H-inden-4-yl)-N—(N-methyl-N-(1-methylpyrrolidin-3-yl)sulfamoyl)acetamide, Potassium Salt]	< 5
CCN(CC)CCCS(=O)(=O)NC(=O)Cc1c(-c2ccnc(OC)c2)cc(F)cc1C(C)C [Example 3, N-((3-(Diethylamino)propyl)sulfonyl)-2-(4-fluoro-2-isopropyl-6-(2-methoxypyridin-4-yl)phenyl)acetamide, Potassium Salt]	< 5
COc1cc(-c2cc(F)cc(C(C)C)c2CC(=O)NS(=O)(=O)C[C@@]23CC[C@@H](C[C@H]2O)C3(C)C)ccn1 [Example 9, 2-(4-Fluoro-2-isopropyl-6-(2-methoxypyridin-4-yl)phenyl)-N-((((1R,2R,4S)-2-hydroxy-7,7-dimethylbicyclo[2.2.1]heptan-1-yl)methyl)sulfonyl)acetamide, Potassium Salt]	< 5

same assay, conditions: Homo sapiens; THP-1 cells, 1 μg/ml LPS, 3 hrs compound, 5 μM nigericin 1 hr; NLRP3 inhibitory activity; read-out: THP IC50

IC50 [µM]	SMILES
< 10	CCN(CC)CCCS(=O)(=O)NC(=O)Cc1c2c(cc3c1CCC3)CCC2 [Example 4, N-((3-(Diethylamino)propyl)sulfonyl)-2-(1,2,3,5,6,7-hexahydro-s-indacen-4-yl)acetamide]
< 10	CCN(CC)CCCS(=O)(=O)NC(=O)Cc1c(C(C)C)cc(F)cc1C(C)C [Example 6, N-((3-(Diethylamino)propyl)sulfonyl)-2-(4-fluoro-2,6-diisopropylphenyl)acetamide]
< 10	CCN(CC)CCCS(=O)(=O)NC(=O)Cc1c(-c2ccnc(OC)c2)ccc2c1CCC2 [Example 2, N-((3-(Diethylamino)propyl)sulfonyl)-2-(5-(2-methoxypyridin-4-yl)-2,3-dihydro-1H-inden-4-yl)acetamide]
< 1	COc1cc(-c2cc(F)cc(C(C)C)c2CC(=O)NS(=O)(=O)CC2(C#N)CCCCC2)ccn1 [Example 11]
< 5	CC(C)c1cc(F)cc(C(C)C)c1CC(=O)NS(=O)(=O)N(C)C1CCN(C)C1 (centres unmarked) [Example 5, 2-(4-Fluoro-2,6-diisopropylphenyl)-N—(N-methyl-N-(1-methylpyrrolidin-3-yl)sulfamoyl)acetamide]
